Earlier results in article PMC10620911 (ACS Omega, 2023).

Conditions: structure-dependent

Cc1noc(-c2ccc(-c3ccc(C4(C(=O)O)CC4)cc3)cc2)c1NC(=O)O[C@H](C)c1ccccc1 [BMS-986020]
hepatobiliary toxicity: hepatobiliary toxicity
